# Experimental data published in patent US8642609B2, “Modulators of ATP-binding cassette transporters” (Vertex Pharmaceuticals Incorporated, priority 2003, dated 2014).
# Biological target: T1, ΔF508-CFTR (Homo sapiens, UniProt P13569, DEL508-508)
# T1 construct: expressed in transfected cells
# Experiment: Membrane potential optical assay (FRET/VIPR), identification of correction compounds
# Assay type: cell-based
# Conditions: for Emax: relative efficacy
# Summary of the method: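 Corrector screen: FRET voltage-sensor dyes (CC2-DMPE donor, DiSBAC2(3)) report Cl^− efflux-driven depolarization after 10 μM forskolin and 20 μM genistein in Cl^−-free medium. Beforehand, ΔF508-CFTR NIH3T3 fibroblasts received compound for 16 hrs at 37° C; temperature-corrected cells (27° C) served as positive control.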
# T1 sequence (P13569 with tags, fused parts or gaps DEL508-508): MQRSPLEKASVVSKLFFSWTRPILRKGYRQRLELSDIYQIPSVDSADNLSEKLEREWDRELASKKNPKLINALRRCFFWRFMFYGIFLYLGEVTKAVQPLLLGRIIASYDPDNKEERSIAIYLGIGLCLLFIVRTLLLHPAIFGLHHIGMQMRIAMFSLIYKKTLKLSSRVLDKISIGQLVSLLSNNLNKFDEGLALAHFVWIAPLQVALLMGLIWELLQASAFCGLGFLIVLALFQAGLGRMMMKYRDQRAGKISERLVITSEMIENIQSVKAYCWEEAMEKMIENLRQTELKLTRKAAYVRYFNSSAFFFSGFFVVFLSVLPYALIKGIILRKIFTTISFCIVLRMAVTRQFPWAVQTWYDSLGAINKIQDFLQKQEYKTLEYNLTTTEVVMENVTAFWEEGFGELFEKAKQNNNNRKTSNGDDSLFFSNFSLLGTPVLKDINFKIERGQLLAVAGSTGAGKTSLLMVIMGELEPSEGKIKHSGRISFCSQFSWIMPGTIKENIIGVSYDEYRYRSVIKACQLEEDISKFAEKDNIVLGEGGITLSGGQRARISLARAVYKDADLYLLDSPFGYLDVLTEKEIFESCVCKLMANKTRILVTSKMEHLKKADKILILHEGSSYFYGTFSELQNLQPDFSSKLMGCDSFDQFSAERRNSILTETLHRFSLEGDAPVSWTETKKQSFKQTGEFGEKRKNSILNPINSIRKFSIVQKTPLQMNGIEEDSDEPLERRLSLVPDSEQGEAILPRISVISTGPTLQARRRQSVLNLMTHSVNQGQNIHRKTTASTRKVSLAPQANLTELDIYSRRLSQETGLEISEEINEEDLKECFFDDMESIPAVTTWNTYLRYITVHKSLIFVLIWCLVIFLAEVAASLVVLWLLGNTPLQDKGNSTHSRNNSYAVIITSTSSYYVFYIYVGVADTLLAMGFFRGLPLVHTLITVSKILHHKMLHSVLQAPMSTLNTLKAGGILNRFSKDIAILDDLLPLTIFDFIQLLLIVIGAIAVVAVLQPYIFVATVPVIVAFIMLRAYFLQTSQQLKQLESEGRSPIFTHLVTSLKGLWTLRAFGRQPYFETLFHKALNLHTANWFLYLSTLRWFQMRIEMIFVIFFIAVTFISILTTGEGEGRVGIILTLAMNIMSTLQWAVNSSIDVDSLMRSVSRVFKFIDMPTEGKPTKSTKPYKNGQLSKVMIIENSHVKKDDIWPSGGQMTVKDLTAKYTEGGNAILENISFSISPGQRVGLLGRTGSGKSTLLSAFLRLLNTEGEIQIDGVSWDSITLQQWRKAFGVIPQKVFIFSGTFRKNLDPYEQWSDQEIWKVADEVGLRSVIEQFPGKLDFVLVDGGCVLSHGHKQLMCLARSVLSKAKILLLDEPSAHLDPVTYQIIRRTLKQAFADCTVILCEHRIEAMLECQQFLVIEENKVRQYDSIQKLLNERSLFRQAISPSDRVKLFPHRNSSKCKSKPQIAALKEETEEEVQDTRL
Structure (SMILES),EC50 [µM],Emax [%]
COc1ccc(S(=O)(=O)N2CCC(N(C)C(C)c3nc4ccccc4c(=O)n3C)CC2)cc1 (centres unmarked) [compound 314],25 to 60,25 to 100
CC(c1nc2ccccc2c(=O)n1C)N(C)C1CCN(S(=O)(=O)c2ccc(Cl)cc2)CC1 (centres unmarked) [compound 315],25 to 60,25 to 100
COc1ccc(S(=O)(=O)N2CCN(C(C)c3nc(N4CC(C)CC(C)C4)c4ccccc4n3)CC2)cc1 (centres unmarked) [compound 316],25 to 60,25 to 100
COc1ccc(S(=O)(=O)N2CCN(C(C)c3nc(N4CCC(N5CCCCC5)CC4)c4ccccc4n3)CC2)cc1 (centres unmarked) [compound 317],25 to 60,< 25
COc1ccc(S(=O)(=O)N2CCN(C(C)c3nc(N4CC[C@H](O)C4)c4ccccc4n3)CC2)cc1 (some centres unmarked) [compound 318],25 to 60,25 to 100
COc1ccc(S(=O)(=O)N2CCN(C(C)c3nc(N4CCCCCC4)c4ccccc4n3)CC2)cc1 (centres unmarked) [compound 319],< 10,25 to 100
COc1ccc(S(=O)(=O)N2CCN(C(C)c3nc(N4CCC(C)CC4)c4ccccc4n3)CC2)cc1 (centres unmarked) [compound 320],< 10,> 100
COc1ccc(S(=O)(=O)N2CCN(C(C)c3nc(N4CCSCC4)c4ccccc4n3)CC2)cc1 (centres unmarked) [compound 321],< 10,> 100
CCOC(=O)C1CCN(c2nc(C(C)N3CCN(S(=O)(=O)c4ccc(OC)cc4)CC3)nc3ccccc23)CC1 (centres unmarked) [compound 322],< 10,> 100
COc1ccc(S(=O)(=O)N2CCN(C(C)c3nc(N4CCC5(CC4)OCCO5)c4ccccc4n3)CC2)cc1 (centres unmarked) [compound 323],10 to 25,25 to 100
COc1ccc(S(=O)(=O)N2CCN(C(C)c3nc(N4CCC[C@@H]4C(=O)O)c4ccccc4n3)CC2)cc1 (some centres unmarked) [compound 324],25 to 60,< 25
COc1ccc(S(=O)(=O)N2CCN(C(C)c3nc(N4CCCC4C)c4ccccc4n3)CC2)cc1 (centres unmarked) [compound 325],< 10,> 100
COc1ccc(S(=O)(=O)N2CCN(C(C)c3nc(N4CCCCC4C)c4ccccc4n3)CC2)cc1 (centres unmarked) [compound 326],< 10,25 to 100
COc1ccc(S(=O)(=O)N2CCN(C(C)c3nc(N4CCC5CCCCC5C4)c4ccccc4n3)CC2)cc1 (centres unmarked) [compound 327],< 10,> 100
COc1ccc(S(=O)(=O)N2CCN(C(C)c3nc(N4CCC5(CC4)OCCCO5)c4ccccc4n3)CC2)cc1 (centres unmarked) [compound 328],10 to 25,> 100
CCc1ccc(S(=O)(=O)N2CCN(C(C)c3nc4ccccc4c(=O)n3C)CC2)cc1 (centres unmarked) [compound 329],< 10,25 to 100
CC(c1nc2ccccc2c(=O)n1C)N1CCN(S(=O)(=O)c2ccc(CC#N)cc2)CC1 (centres unmarked) [compound 330],25 to 60,25 to 100
COc1ccc(S(=O)(=O)N2CCN(C(C)c3nc4ccccc4c(=O)n3CC(C)C)CC2)cc1 (centres unmarked) [compound 331],< 10,> 100
COc1ccc(S(=O)(=O)N2CCN(C(C)c3nc4ccccc4c(=O)n3CC(C)(C)C)CC2)cc1 (centres unmarked) [compound 332],25 to 60,25 to 100
COc1ccc(S(=O)(=O)N2CCN(C(C)c3nc(N4CCCC4)c4ccccc4n3)CC2)cc1 (centres unmarked) [compound 333],10 to 25,25 to 100
CCC(c1nc2ccccc2c(=O)[nH]1)N1CCN(S(=O)(=O)c2ccc(OC)cc2)CC1 (centres unmarked) [compound 334],25 to 60,25 to 100

Structure (SMILES),EC50 [µM],Emax [%]
CCCC(c1nc2ccccc2c(=O)[nH]1)N1CCN(S(=O)(=O)c2ccc(OC)cc2)CC1 (centres unmarked) [compound 335],10 to 25,25 to 100
CCC(c1nc(N2CCCCC2)c2ccccc2n1)N1CCN(S(=O)(=O)c2ccc(OC)cc2)CC1 (centres unmarked) [compound 336],< 10,> 100
CCC(c1nc2ccccc2c(=O)n1C)N1CCN(S(=O)(=O)c2ccc(OC)cc2)CC1 (centres unmarked) [compound 337],10 to 25,> 100
CCC(c1nc2ccccc2c(=O)n1CC)N1CCN(S(=O)(=O)c2ccc(OC)cc2)CC1 (centres unmarked) [compound 338],< 10,> 100
CCCC(c1nc(N2CCCCC2)c2ccccc2n1)N1CCN(S(=O)(=O)c2ccc(OC)cc2)CC1 (centres unmarked) [compound 339],< 10,> 100
CCCC(c1nc2ccccc2c(=O)n1C)N1CCN(S(=O)(=O)c2ccc(OC)cc2)CC1 (centres unmarked) [compound 340],< 10,> 100
CCCC(c1nc2ccccc2c(=O)n1CC)N1CCN(S(=O)(=O)c2ccc(OC)cc2)CC1 (centres unmarked) [compound 341],< 10,> 100
CCCn1c(C(CC)N2CCN(S(=O)(=O)c3ccc(OC)cc3)CC2)nc2ccccc2c1=O (centres unmarked) [compound 342],< 10,25 to 100
COc1ccc(S(=O)(=O)N2CCN(C(C)c3nc(OC4CCC(O)CC4)c4ccccc4n3)CC2)cc1 (centres unmarked) [compound 343],25 to 60,25 to 100
COc1ccc(S(=O)(=O)N2CCN(C(C)c3nc(N4CCCC(CO)C4)c4ccccc4n3)CC2)cc1 (centres unmarked) [compound 344],10 to 25,25 to 100
COc1ccc(S(=O)(=O)N2CCN(C(C)c3nc(N4CCN(C)CC4)c4ccccc4n3)CC2)cc1 (centres unmarked) [compound 345],25 to 60,25 to 100
COc1ccc(S(=O)(=O)N2CCN(C(C)c3nc(N4CCC(O)CC4)c4ccccc4n3)CC2)cc1 (centres unmarked) [compound 346],25 to 60,25 to 100
COc1ccc(S(=O)(=O)N2CCN(C(C)c3nc(N4CCC(CO)CC4)c4ccccc4n3)CC2)cc1 (centres unmarked) [compound 347],25 to 60,25 to 100
COc1ccc(S(=O)(=O)N2CCN(C(C)c3nc(OC4CCC(C)C(C)C4)c4ccccc4n3)CC2)cc1 (centres unmarked) [compound 348],< 10,> 100
CCOC(=O)c1cnc(C(C)N2CCN(S(=O)(=O)c3ccc(OC)cc3)CC2)[nH]c1=O (centres unmarked) [compound 349],25 to 60,25 to 100
CSc1ccc(S(=O)(=O)N2CCN(C(C)c3nc4ccccc4c(=O)n3C)CC2)cc1 (centres unmarked) [compound 350],25 to 60,< 25
CCSc1ccc(S(=O)(=O)N2CCN(C(C)c3nc4ccccc4c(=O)n3C)CC2)cc1 (centres unmarked) [compound 351],25 to 60,< 25
CC(c1nc2ccccc2c(=O)n1C)N1CCN(S(=O)(=O)c2ccc(SC(F)(F)F)cc2)CC1 (centres unmarked) [compound 352],< 10,25 to 100
CCOC(=O)c1cnc(C(C)N2CCN(S(=O)(=O)c3ccc(OC)cc3)CC2)nc1N1CCCCC1 (centres unmarked) [compound 353],< 10,25 to 100
C#Cc1ccc(S(=O)(=O)N2CCN(C(C)c3nc4ccccc4c(=O)n3C)CC2)cc1 (centres unmarked) [compound 354],10 to 25,25 to 100
COc1ccc(S(=O)(=O)N2CCN(C(C)c3ncc(C(=O)O)c(N4CCCCC4)n3)CC2)cc1 (centres unmarked) [compound 355],25 to 60,< 25

Structure (SMILES),EC50 [µM],Emax [%]
COc1ccc(S(=O)(=O)N2CCN(C(C)c3ncc(C(N)=O)c(N4CCCCC4)n3)CC2)cc1 (centres unmarked) [compound 356],25 to 60,25 to 100
CNC(=O)c1cnc(C(C)N2CCN(S(=O)(=O)c3ccc(OC)cc3)CC2)nc1N1CCCCC1 (centres unmarked) [compound 357],25 to 60,25 to 100
COc1ccc(S(=O)(=O)N2CCN(C(C)c3ncc(C(=O)N(C)C)c(N4CCCCC4)n3)CC2)cc1 (centres unmarked) [compound 358],25 to 60,25 to 100
COc1ccc(S(=O)(=O)N2CCN(C(C)c3ncc(CO)c(N4CCCCC4)n3)CC2)cc1 (centres unmarked) [compound 359],25 to 60,25 to 100
COc1ccc(S(=O)(=O)N2CCN(C(C)c3nccc(N4CCCCC4)n3)CC2)cc1 (centres unmarked) [compound 360],25 to 60,25 to 100
COc1ccc(S(=O)(=O)N2CCN(C(C)c3nc(N4CC5CCC4C5)c4ccccc4n3)CC2)cc1 (centres unmarked) [compound 361],< 10,> 100
CCOC(=O)c1cnc(C(C)N2CCN(S(=O)(=O)c3ccc(OC)cc3)CC2)nc1OC1CCCC1 (centres unmarked) [compound 362],< 10,> 100
COc1ccc(S(=O)(=O)N2CCN(C(C)c3nc(N4CCC(CCO)CC4)c4ccccc4n3)CC2)cc1 (centres unmarked) [compound 363],10 to 25,> 100
COc1ccc(S(=O)(=O)N2CCN(C(C)c3nc(N4CCC(C(N)=O)CC4)c4ccccc4n3)CC2)cc1 (centres unmarked) [compound 364],25 to 60,25 to 100
CCCC1CCN(c2nc(C(C)N3CCN(S(=O)(=O)c4ccc(OC)cc4)CC3)nc3ccccc23)CC1 (centres unmarked) [compound 365],< 10,> 100
COc1ccc(S(=O)(=O)N2CCN(C(C)c3nc(Nc4ccccc4)c4ccccc4n3)CC2)cc1 (centres unmarked) [compound 366],< 10,25 to 100
COc1ccc(S(=O)(=O)N2CCN(C(C)c3nc(NCc4ccccc4)c4ccccc4n3)CC2)cc1 (centres unmarked) [compound 367],< 10,25 to 100
COc1ccc(S(=O)(=O)N2CCN(C(C)c3nc(N(C)Cc4ccccc4)c4ccccc4n3)CC2)cc1 (centres unmarked) [compound 368],< 10,> 100
COc1ccc(S(=O)(=O)N2CCN(C(C)c3nc(N4CCN(C(C)=O)CC4)c4ccccc4n3)CC2)cc1 (centres unmarked) [compound 369],25 to 60,25 to 100
COc1ccc(S(=O)(=O)N2CCN(C(C)c3nc(N4CCC(C(=O)O)CC4)c4ccccc4n3)CC2)cc1 (centres unmarked) [compound 370],25 to 60,< 25
COc1ccc(S(=O)(=O)N2CCN(C(C)c3nc(N4CCCCC4)c4cc(F)ccc4n3)CC2)cc1 (centres unmarked) [compound 371],< 10,> 100
COc1ccc(S(=O)(=O)N2CCN(C(C)c3nc(N4CCC(C)CC4)c4cc(F)ccc4n3)CC2)cc1 (centres unmarked) [compound 372],10 to 25,> 100
COc1ccc(S(=O)(=O)N2CCN(C(C)c3nc(NC4CCCCC4)c4cc(F)ccc4n3)CC2)cc1 (centres unmarked) [compound 373],10 to 25,25 to 100
COc1ccc(S(=O)(=O)N2CCN(C(C)c3nc(OC4CCCCC4)c4cc(F)ccc4n3)CC2)cc1 (centres unmarked) [compound 374],< 10,25 to 100
